Measured values from patent publication US20250332178A1, “METHODS OF TREATING MYCOBACTERIAL INFECTIONS USING TETRACYCLINE COMPOUNDS” (priority 2018, published 2025).
In brackets after ≈: the same amount, converted by molar mass.

tested on: H37Rv strain of Mycobacterium tuberculosis; assay: MIC against H37Rv strain; assay type: cell-based; settings: Mycobacterium tuberculosis, H37RV
Method: The purpose of this study was to test activity of selected tetracycline compounds against the H37Rv strain of Mycobacterium tuberculosis. Minimum inhibitory concentrations (MIC) of different tetracycline compounds against H37Rv strain were determined and are shown in Table 8.

Row | SMILES | MIC
1 | CN(C)c1cc(CNC(CF)CF)c(O)c2c1C[C@H]1C[C@H]3[C@H](N(C)C)C(O)=C(C(N)=O)C(=O)[C@@]3(O)C(O)=C1C2=O [Compound 79] | 32 µg/mL (≈ 56.7 µM)

same assay, conditions: Mycobacterium tuberculosis, H37RV; read-out: MIC

Row | SMILES | MIC
2 | CN(C)c1cc(CNCC2CCSCC2)c(O)c2c1C[C@H]1C[C@H]3C(N(C)C)C(O)=C(C(N)=O)C(=O)[C@@]3(O)C(O)=C1C2=O (stereo partly drawn) [Compound 50] | > 32 µg/mL
3 | CC(N)CNCc1cc(N(C)C)c2c(c1O)C(=O)C1=C(O)[C@]3(O)C(=O)C(C(N)=O)=C(O)C(N(C)C)[C@@H]3C[C@@H]1C2 (stereo partly drawn) [Compound 51] | > 32 µg/mL
4 | CN(C)c1cc(CNC(=O)c2ccno2)c(O)c2c1C[C@H]1C[C@H]3C(N(C)C)C(O)=C(C(N)=O)C(=O)[C@@]3(O)C(O)=C1C2=O (stereo partly drawn) [Compound 52] | 16 µg/mL (≈ 27.5 µM)
5 | CCC(C)CNCc1cc(N(C)C)c2c(c1O)C(=O)C1=C(O)[C@]3(O)C(=O)C(C(N)=O)=C(O)[C@@H](N(C)C)[C@@H]3C[C@@H]1C2 (stereo partly drawn) [Compound 53] | 16 µg/mL (≈ 28.7 µM)
6 | CN(C)c1cc(CNCc2cc[n+]([O-])cc2)c(O)c2c1C[C@H]1C[C@H]3[C@H](N(C)C)C(O)=C(C(N)=O)C(=O)[C@@]3(O)C(O)=C1C2=O [Compound 54] | 32 µg/mL (≈ 53.9 µM)
7 | CN(C)c1cc(CN(Cc2ccn[nH]2)Cc2ccn[nH]2)c(O)c2c1C[C@H]1C[C@H]3[C@H](N(C)C)C(O)=C(C(N)=O)C(=O)[C@@]3(O)C(O)=C1C2=O [Compound 55] | > 32 µg/mL
8 | CN(C)c1cc(CN2CCCCC2)c(O)c2c1C[C@H]1C[C@H]3[C@H](N(C)C)C(O)=C(C(N)=O)C(=O)[C@@]3(O)C(O)=C1C2=O [Compound 56] | 16 µg/mL (≈ 28.8 µM)
9 | CN(C)c1cc(CNCC2CCCCC2)c(O)c2c1C[C@H]1C[C@H]3[C@H](N(C)C)C(O)=C(C(N)=O)C(=O)[C@@]3(O)C(O)=C1C2=O [Compound 57] | 32 µg/mL (≈ 54.9 µM)
10 | CN(C)c1cc(CNC(=O)C2CCCN2)c(O)c2c1C[C@H]1C[C@H]3C(N(C)C)C(O)=C(C(N)=O)C(=O)[C@@]3(O)C(O)=C1C2=O (stereo partly drawn) [Compound 58] | 16 µg/mL (≈ 27.4 µM)
11 | CN(C)c1cc(CNC(=O)C2(N)CC2)c(O)c2c1C[C@H]1C[C@H]3[C@H](N(C)C)C(O)=C(C(N)=O)C(=O)[C@@]3(O)C(O)=C1C2=O [Compound 59] | 16 µg/mL (≈ 28.1 µM)
12 | CN(C)CC(=O)NCc1cc(N(C)C)c2c(c1O)C(=O)C1=C(O)[C@]3(O)C(=O)C(C(N)=O)=C(O)C(N(C)C)[C@@H]3C[C@@H]1C2 (stereo partly drawn) [Compound 60] | 16 µg/mL (≈ 28 µM)
13 | CN(C)c1cc(CNC(N)=S)c(O)c2c1C[C@H]1C[C@H]3[C@H](N(C)C)C(O)=C(C(N)=O)C(=O)[C@@]3(O)C(O)=C1C2=O [Compound 61] | > 32 µg/mL
14 | Cc1csc(NCc2cc(N(C)C)c3c(c2O)C(=O)C2=C(O)[C@]4(O)C(=O)C(C(N)=O)=C(O)C(N(C)C)[C@@H]4C[C@@H]2C3)n1 (stereo partly drawn) [Compound 62] | > 32 µg/mL
15 | CCOC(=O)c1csc(NCc2cc(N(C)C)c3c(c2O)C(=O)C2=C(O)[C@]4(O)C(=O)C(C(N)=O)=C(O)C(N(C)C)[C@@H]4C[C@@H]2C3)n1 (stereo partly drawn) [Compound 63] | > 32 µg/mL
16 | CN(C)C1C(O)=C(C(N)=O)C(=O)[C@@]2(O)C(O)=C3C(=O)c4c(O)c(CNCC(C)(C)C)cc(CNCC(C)(C)C)c4C[C@H]3C[C@@H]12 (stereo partly drawn) [Compound 64] | 32 µg/mL (≈ 52.2 µM)
17 | CN(C)c1cc(CNCC2CC2)c(O)c2c1C[C@H]1C[C@H]3[C@H](N(C)C)C(O)=C(C(N)=O)C(=O)[C@@]3(O)C(O)=C1C2=O [Compound 65] | 16 µg/mL (≈ 29.6 µM)
18 | CN(C)c1cc(CNCc2ccccc2)c(O)c2c1C[C@H]1C[C@H]3[C@H](N(C)C)C(O)=C(C(N)=O)C(=O)[C@@]3(O)C(O)=C1C2=O [Compound 66] | > 32 µg/mL

Row | SMILES | MIC
19 | Cc1noc(C)c1S(=O)(=O)NCc1cc(N(C)C)c2c(c1O)C(=O)C1=C(O)[C@]3(O)C(=O)C(C(N)=O)=C(O)[C@@H](N(C)C)[C@@H]3C[C@@H]1C2 [Compound 67] | > 32 µg/mL
20 | CN(C)[C@@H]1C(O)=C(C(N)=O)C(=O)[C@@]2(O)C(O)=C3C(=O)c4c(ccc(CNCC(C)(C)C)c4O)C[C@H]3C[C@@H]12 [Compound 68] | > 32 µg/mL
21 | CN(C)c1cc(Cn2ccc(C=O)c2)c(O)c2c1C[C@H]1C[C@H]3[C@H](N(C)C)C(O)=C(C(N)=O)C(=O)[C@@]3(O)C(O)=C1C2=O [Compound 69] | > 32 µg/mL
22 | CC(C)CNCc1cc(N(C)C)c2c(c1O)C(=O)C1=C(O)[C@]3(O)C(=O)C(C(N)=O)=C(O)[C@H](N(C)C)[C@@H]3C[C@@H]1C2 [Compound 70] | 16 µg/mL (≈ 29.5 µM)
23 | CN(C)c1cc(CNC(=O)[C@@H]2CCCN2C)c(O)c2c1C[C@H]1C[C@H]3[C@@H](N(C)C)C(O)=C(C(N)=O)C(=O)[C@@]3(O)C(O)=C1C2=O [Compound 71] | 16 µg/mL (≈ 26.8 µM)
24 | C[C@H]1c2ccc(CN3CCCCC3)c(O)c2C(=O)C2=C(O)[C@]3(O)C(=O)C(C(N)=O)=C(O)[C@@H](N(C)C)[C@@H]3[C@@H](O)[C@@H]21 [Compound 72] | 32 µg/mL (≈ 59.1 µM)
25 | CN(C)[C@H]1C(O)=C(C(N)=O)C(=O)[C@@]2(O)C(O)=C3C(=O)c4c(O)c(CNCC(C)(C)C)cc(-c5ccoc5)c4C[C@H]3C[C@@H]12 [Compound 73] | > 32 µg/mL
26 | CC(NCc1cc(N(C)C)c2c(c1O)C(=O)C1=C(O)[C@]3(O)C(=O)C(C(N)=O)=C(O)C(N(C)C)[C@@H]3C[C@@H]1C2)C(F)(F)F (stereo partly drawn) [Compound 74] | > 32 µg/mL
27 | CN(C)c1cc(CNc2nc(-c3ccc(F)cc3)cs2)c(O)c2c1C[C@H]1C[C@H]3C(N(C)C)C(O)=C(C(N)=O)C(=O)[C@@]3(O)C(O)=C1C2=O (stereo partly drawn) [Compound 75] | > 32 µg/mL
28 | CN(C)c1cc(CNc2nc(C(F)(F)F)cs2)c(O)c2c1C[C@H]1C[C@H]3C(N(C)C)C(O)=C(C(N)=O)C(=O)[C@@]3(O)C(O)=C1C2=O (stereo partly drawn) [Compound 76] | > 32 µg/mL
29 | CN(C)c1cc(CNCc2cc(F)c(F)c(F)c2)c(O)c2c1C[C@H]1C[C@H]3C(N(C)C)C(O)=C(C(N)=O)C(=O)[C@@]3(O)C(O)=C1C2=O (stereo partly drawn) [Compound 77] | > 32 µg/mL
30 | CN(C)c1cc(CNCc2ccc(C#N)cc2)c(O)c2c1C[C@H]1C[C@H]3C(N(C)C)C(O)=C(C(N)=O)C(=O)[C@@]3(O)C(O)=C1C2=O (stereo partly drawn) [Compound 78] | 32 µg/mL (≈ 53.2 µM)
31 | CN(C)c1cc(CN2CCOCC2)c(O)c2c1C[C@H]1C[C@H]3[C@H](N(C)C)C(O)=C(C(N)=O)C(=O)[C@@]3(O)C(O)=C1C2=O [Compound 80] | 16 µg/mL (≈ 28.7 µM)
32 | CC(CC(F)(F)F)NCc1cc(N(C)C)c2c(c1O)C(=O)C1=C(O)[C@]3(O)C(=O)C(C(N)=O)=C(O)[C@@H](N(C)C)[C@@H]3C[C@@H]1C2 (stereo partly drawn) [Compound 81] | 32 µg/mL (≈ 53.6 µM)
33 | CN(C)c1cc(CNc2ccccc2)c(O)c2c1C[C@H]1C[C@H]3[C@H](N(C)C)C(O)=C(C(N)=O)C(=O)[C@@]3(O)C(O)=C1C2=O [Compound 82] | > 32 µg/mL
34 | CN(C)c1cc(CN2CCCC2)c(O)c2c1C[C@H]1C[C@H]3C(N(C)C)C(O)=C(C(N)=O)C(=O)[C@@]3(O)C(O)=C1C2=O (stereo partly drawn) [Compound 83] | 32 µg/mL (≈ 59.2 µM)

tested on: M. chelonae; assay: MIC (CLSI broth dilution), RGM isolates; assay type: cell-based; settings: Mycobacteroides chelonae, isolate 18, M. chelonae; read-out: MIC

Row | SMILES | MIC
35 | NC[C@H]1O[C@H](O[C@H]2[C@H](O)[C@@H](O[C@H]3O[C@H](CO)[C@@H](O)[C@H](N)[C@H]3O)[C@H](N)C[C@@H]2N)[C@H](N)C[C@@H]1O [TOB, tobramycin] | ≤ 2 µg/mL

same assay, conditions: Mycobacteroides chelonae, isolate 19, M. chelonae; read-out: MIC

Row | SMILES | MIC
36 | NC[C@H]1O[C@H](O[C@H]2[C@H](O)[C@@H](O[C@H]3O[C@H](CO)[C@@H](O)[C@H](N)[C@H]3O)[C@H](N)C[C@@H]2N)[C@H](N)C[C@@H]1O [TOB, tobramycin] | ≤ 2 µg/mL

same assay, conditions: Mycobacteroides chelonae, isolate 20, M. chelonae; read-out: MIC

Row | SMILES | MIC
37 | NC[C@H]1O[C@H](O[C@H]2[C@H](O)[C@@H](O[C@H]3O[C@H](CO)[C@@H](O)[C@H](N)[C@H]3O)[C@H](N)C[C@@H]2N)[C@H](N)C[C@@H]1O [TOB, tobramycin] | ≤ 2 µg/mL

same assay, conditions: Mycobacteroides chelonae, isolate 21, M. chelonae; read-out: MIC

Row | SMILES | MIC
38 | NC[C@H]1O[C@H](O[C@H]2[C@H](O)[C@@H](O[C@H]3O[C@H](CO)[C@@H](O)[C@H](N)[C@H]3O)[C@H](N)C[C@@H]2N)[C@H](N)C[C@@H]1O [TOB, tobramycin] | ≤ 2 µg/mL

same assay, conditions: Mycobacteroides chelonae, isolate 22, M. chelonae; read-out: MIC

Row | SMILES | MIC
39 | NC[C@H]1O[C@H](O[C@H]2[C@H](O)[C@@H](O[C@H]3O[C@H](CO)[C@@H](O)[C@H](N)[C@H]3O)[C@H](N)C[C@@H]2N)[C@H](N)C[C@@H]1O [TOB, tobramycin] | ≤ 2 µg/mL

tested on: M. immunogenum group; assay: MIC (CLSI broth dilution), RGM isolates; assay type: cell-based; settings: isolate 36, M. immunogenum group, M. immunogenum; read-out: MIC

Row | SMILES | MIC
40 | NC[C@H]1O[C@H](O[C@H]2[C@H](O)[C@@H](O[C@H]3O[C@H](CO)[C@@H](O)[C@H](N)[C@H]3O)[C@H](N)C[C@@H]2N)[C@H](N)C[C@@H]1O [TOB, tobramycin] | 8 µg/mL (≈ 17.1 µM)

same assay, conditions: isolate 37, M. immunogenum group, M. immunogenum; read-out: MIC

Row | SMILES | MIC
41 | NC[C@H]1O[C@H](O[C@H]2[C@H](O)[C@@H](O[C@H]3O[C@H](CO)[C@@H](O)[C@H](N)[C@H]3O)[C@H](N)C[C@@H]2N)[C@H](N)C[C@@H]1O [TOB, tobramycin] | > 8 µg/mL

same assay, conditions: isolate 38, M. immunogenum group, M. immunogenum; read-out: MIC

Row | SMILES | MIC
42 | NC[C@H]1O[C@H](O[C@H]2[C@H](O)[C@@H](O[C@H]3O[C@H](CO)[C@@H](O)[C@H](N)[C@H]3O)[C@H](N)C[C@@H]2N)[C@H](N)C[C@@H]1O [TOB, tobramycin] | > 8 µg/mL
